Results: patent US8399480B2, “Hydroxymethyl pyrrolidines as beta 3 adrenergic receptor agonists” (Merck Sharp & Dohme Corp., priority 2008, dated 2013)
pEC50: −log10 of the molar value.

Target: T1, human β3 adrenergic receptor (Homo sapiens, UniProt P13945)
T1 construct: expressed in transfected cells; host or cells: Chinese hamster ovary (CHO) cells, stably transfected
Test: Functional assay: cAMP production (LANCE TR-FRET) in CHO cells stably transfected with cloned β3 adrenergic receptor
Format: cell-based
Details: Table 4; human β3 functional activity; read-out: Human β Binding
Method in brief: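 Agonist-stimulated cAMP in CHO cells stably expressing human β3 receptor, 6,000 cells per well in HBSS/HEPES/0.1% BSA with 0.6 mM IBMX, 30 min at room temperature. LANCE TR-FRET readout converted to cAMP via standard curve; maximal stimulation defined with isoproterenol.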

T1 sequence (P13945 whole entry): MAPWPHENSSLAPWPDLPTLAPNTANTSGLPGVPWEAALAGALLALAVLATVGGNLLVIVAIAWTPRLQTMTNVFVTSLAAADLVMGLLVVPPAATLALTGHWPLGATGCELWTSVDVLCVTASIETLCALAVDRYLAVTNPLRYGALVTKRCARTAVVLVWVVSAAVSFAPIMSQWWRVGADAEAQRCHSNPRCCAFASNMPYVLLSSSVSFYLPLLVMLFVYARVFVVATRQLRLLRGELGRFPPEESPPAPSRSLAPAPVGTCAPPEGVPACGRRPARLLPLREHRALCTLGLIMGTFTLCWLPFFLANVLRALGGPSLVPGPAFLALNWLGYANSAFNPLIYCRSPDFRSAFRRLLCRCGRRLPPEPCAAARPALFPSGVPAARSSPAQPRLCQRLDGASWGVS

pEC50	SMILES
6.00 to 7.00	O=C(Nc1ccc(C[C@@H]2CC[C@H]([C@H](O)c3ccccc3)N2)cc1)C1CCCN1c1ccc(Cl)cc1 (some centres unmarked) [Example 37]
7.00 to 7.96	O=C(Nc1ccc(C[C@@H]2CC[C@H]([C@H](O)c3ccccc3)N2)cc1)C1CCCN1c1cccc(I)c1 (some centres unmarked) [Example 39]
8.00 to 9.00	Cn1ncc2c(=O)n(CC(=O)Nc3ccc(C[C@@H]4CC[C@H]([C@H](O)c5ccccc5)N4)cc3)cnc21 [Example 60]
7.00 to 7.96	Cn1nccc1-c1nnc(CC(=O)Nc2ccc(C[C@@H]3CC[C@H]([C@H](O)c4ccccc4)N3)cc2)[nH]1 [Example 28]
6.00 to 7.00	O=C(Cc1cccnc1)Nc1ccc(C[C@@H]2CC[C@H]([C@H](O)c3ccccc3)N2)cc1 [Example 44]
7.00 to 7.96	O=C(CN1CCOC1=O)Nc1ccc(C[C@@H]2CC[C@H]([C@H](O)c3ccccc3)N2)cc1 [Example 90]
6.00 to 7.00	O=C(Nc1ccc(C[C@@H]2CC[C@H]([C@H](O)c3ccccc3)N2)cc1)c1ccccc1COc1ccccc1 [Example 31]
7.00 to 7.96	Cc1nnc(CC(=O)Nc2ccc(C[C@@H]3CC[C@H]([C@H](O)c4ccccc4)N3)cc2)[nH]1 [Example 21]
8.00 to 9.00	COc1cccc(N2CCCC2C(=O)Nc2ccc(C[C@@H]3CC[C@H]([C@H](O)c4ccccc4)N3)cc2)c1 (some centres unmarked) [Example 36]
8.00 to 9.00	NC(=O)c1nn(CC(=O)Nc2ccc(C[C@@H]3CC[C@H]([C@H](O)c4ccccc4)N3)cc2)c(=O)c2ccccc12 [Example 54]
5.52 to 6.00	Cc1nc2c(CC(=O)Nc3ccc(C[C@@H]4CC[C@H]([C@H](O)c5ccccc5)N4)cc3)cccn2n1 [Example 97]
8.00 to 9.00	O=C(Cc1cnccn1)Nc1ccc(C[C@@H]2CC[C@H]([C@H](O)c3ccccc3)N2)cc1 [Example 94]
8.00 to 9.00	O=C(Cn1nc(Cc2ccccc2)c2ccccc2c1=O)Nc1ccc(C[C@@H]2CC[C@H]([C@H](O)c3ccccc3)N2)cc1 [Example 18]
8.00 to 9.00	O=C(Cn1nnc2ccccc2c1=O)Nc1ccc(C[C@@H]2CC[C@H]([C@H](O)c3ccccc3)N2)cc1 [Example 59]
7.00 to 7.96	O=C(Cn1nnnc1-c1ccc(F)cc1)Nc1ccc(C[C@@H]2CC[C@H]([C@H](O)c3ccccc3)N2)cc1 [Example 29]

Same assay, conditions: Table 5; read-out: Human β3 Functional

pEC50	SMILES
> 9.00	O=C(Nc1ccc(C[C@@H]2CC[C@H]([C@H](O)c3ccccc3)N2)cc1)C1CCc2sc(F)nc21 (single isomer, unassigned) [Example 147]
> 9.00	O=C(Nc1ccc(C[C@@H]2CC[C@H]([C@H](O)c3ccccc3)N2)cc1)C1CCc2sc(F)nc21 (single isomer, unassigned) [Example 146]
5.52 to 6.00	O=C(Nc1ccc(C[C@@H]2CC[C@H]([C@H](O)c3ccccc3)N2)cc1)C1CCCn2ccnc21 (single isomer, unassigned) [Example 154]
7.00 to 7.96	O=C(Nc1ccc(C[C@@H]2CC[C@H]([C@H](O)c3ccccc3)N2)cc1)C1CCc2ncnn21 (single isomer, unassigned) [Example 129]
> 9.00	Nc1nc2c(s1)CCCC2C(=O)Nc1ccc(C[C@@H]2CC[C@H]([C@H](O)c3ccccc3)N2)cc1 (single isomer, unassigned) [Example 117]
> 9.00	O=C(Nc1ccc(C[C@@H]2CC[C@H]([C@H](O)c3ccccc3)N2)cc1)C1CCc2cccnc21 (single isomer, unassigned) [Example 132]
8.00 to 9.00	O=C(Nc1ccc(C[C@@H]2CC[C@H]([C@H](O)c3ccccc3)N2)cc1)C1CCn2nnnc21 (single isomer, unassigned) [Example 131]

More lines, now with the values behind:

SMILES	pEC50
CC(C(=O)Nc1ccc(C[C@@H]2CC[C@H]([C@H](O)c3ccccc3)N2)cc1)n1cncn1 (single isomer, unassigned) [Example 177]	8.00 to 9.00
CC(C(=O)Nc1ccc(C[C@@H]2CC[C@H]([C@H](O)c3ccccc3)N2)cc1)N1CCOC1=O (single isomer, unassigned) [Example 209]	7.00 to 7.96
O=C(Nc1ccc(C[C@@H]2CC[C@H]([C@H](O)c3ccccc3)N2)cc1)C1CCCn2nnnc21 (single isomer, unassigned) [Example 152]	7.00 to 7.96
CCC(C(=O)Nc1ccc(C[C@@H]2CC[C@H]([C@H](O)c3ccccc3)N2)cc1)n1nccn1 (single isomer, unassigned) [Example 217]	8.00 to 9.00
CC(C(=O)Nc1ccc(CC2CCC(C(O)c3ccccc3)N2)cc1)c1ccn(C)n1 (single isomer, unassigned) [Example 186]	6.00 to 7.00
CC(C(=O)Nc1ccc(C[C@@H]2CC[C@H]([C@H](O)c3ccccc3)N2)cc1)n1cc(C(N)=O)nn1 (single isomer, unassigned) [Example 192]	8.00 to 9.00
COC(=O)c1cn(C(C)C(=O)Nc2ccc(C[C@@H]3CC[C@H]([C@H](O)c4ccccc4)N3)cc2)nn1 (single isomer, unassigned) [Example 189]	7.00 to 7.96

Same assay, conditions: Table 6; read-out: Human β3 Functional

pEC50	SMILES
5.52 to 6.00	Cc1nc2c(s1)CCCC2C(=O)Nc1ccc(CC2CCC(C(O)c3ccccc3)N2)cc1 (single isomer, unassigned) [Example 232]
6.00 to 7.00	Cc1nc2c(s1)CCCC2C(=O)Nc1ccc(CC2CCC(C(O)c3ccccc3)N2)cc1 (single isomer, unassigned) [Example 231]

Same assay, conditions: Table 7; β3AR-cAMP; read-out: Human β3 Functional

pEC50	SMILES
6.00 to 7.00	Cc1nnc(-c2cccc(S(=O)(=O)Nc3ccc(C[C@@H]4CC[C@H]([C@H](O)c5ccccc5)N4)cc3)c2)o1 [Example 242]
7.00 to 7.96	O=S(=O)(Nc1ccc(C[C@@H]2CC[C@H]([C@H](O)c3ccccc3)N2)cc1)c1ccc(-c2cocn2)cc1 [Example 241]

Same assay, conditions: Table 8; read-out: Human β3 Functional

pEC50	SMILES
7.00 to 7.96	CN(Cc1cscn1)C(=O)Nc1ccc(C[C@@H]2CC[C@H]([C@H](O)c3ccccc3)N2)cc1 [Example 253]

Same assay, conditions: Table 9; read-out: Human β^3 Functional

pEC50	SMILES
> 9.00	CC(NC(=O)c1ncccn1)C(=O)Nc1ccc(C[C@@H]2CC[C@H]([C@H](O)c3ccccc3)N2)cc1 (some centres unmarked) [Example 268]
> 9.00	CC(NC(=O)c1cc[nH]n1)C(=O)Nc1ccc(C[C@@H]2CC[C@H]([C@H](O)c3ccccc3)N2)cc1 (some centres unmarked) [Example 271]

Same assay, conditions: Table 11; read-out: Human β3 Functional

pEC50	SMILES
> 9.00	O=C(Nc1ccc(C[C@@H]2CC[C@H]([C@H](O)c3ccc(F)cc3)N2)cc1)[C@@H]1CCc2scnc21 [Example 284]

Same assay, conditions: Table 12; read-out: Human β3 Functional

pEC50	SMILES
7.00 to 7.96	Nc1nc2c(s1)CCC2C(=O)Nc1ccc(CC2CCC(C(O)c3ccc(F)c(F)c3)N2)cc1 (single isomer, unassigned) [Example 288]
7.00 to 7.96	Nc1nc2c(s1)CCC2C(=O)Nc1ccc(CC2CCC(C(O)c3ccc(F)c(F)c3)N2)cc1 (single isomer, unassigned) [Example 291]

Same assay, conditions: given as a range; cAMP, CHO cells; read-out: human β3 functional activity

pEC50	SMILES
6.00 to 7.00	Nc1nc(CC(=O)Nc2ccc(C[C@H]3CC[C@H]([C@H](O)c4ccccc4)N3)cc2Br)cs1 [Example 313, 2-(2-Amino-1,3-thiazol-4-yl)-N-[2-bromo-4-({(2R,5R)-5-[(R)-hydroxy(phenyl)methyl]pyrrolidin-2-yl}methyl)phenyl]acetamide]

Same assay, conditions: human β3 functional activity, shown as ranges; Table 13; read-out: Human β3 Functional

pEC50	SMILES
7.00 to 7.96	O=C(Nc1ccc(CC2CCC(C(O)c3cccc(Cl)c3)N2)cc1)C1CCc2sc(F)nc21 (single isomer, unassigned) [Example 301]
8.00 to 9.00	Nc1nc(CC(=O)Nc2ccc(C[C@@H]3CC[C@H]([C@H](O)c4cccc(Cl)c4)N3)cc2)cs1 [Example 304]

Target: T2, β3AR (Rattus norvegicus, UniProt P26255)
T2 construct: host or cells: rat, in vivo (bladder)
T2 sequence (P26255 whole entry): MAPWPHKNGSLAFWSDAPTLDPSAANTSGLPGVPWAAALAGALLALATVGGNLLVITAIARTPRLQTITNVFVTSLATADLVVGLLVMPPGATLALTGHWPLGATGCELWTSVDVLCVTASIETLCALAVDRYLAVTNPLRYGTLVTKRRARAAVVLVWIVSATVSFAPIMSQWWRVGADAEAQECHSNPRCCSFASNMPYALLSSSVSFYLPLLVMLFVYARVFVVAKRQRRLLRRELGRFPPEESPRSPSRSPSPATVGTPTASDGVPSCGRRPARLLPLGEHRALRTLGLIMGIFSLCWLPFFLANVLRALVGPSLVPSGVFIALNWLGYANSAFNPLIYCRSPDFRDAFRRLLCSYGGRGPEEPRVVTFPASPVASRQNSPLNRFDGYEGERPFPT
Test: not given
Details: rats, intravenous administration, cystometric studies; prolonged micturition interval without increasing residual urine volume; cited from earlier work

SMILES	bladder capacity
C[C@H](Cc1ccc2c(c1)OC(C(=O)[O-])(C(=O)[O-])O2)NC[C@H](O)c1cccc(Cl)c1.[Na+].[Na+] [CL316243]	increases bladder capacity

Same assay, conditions: rats, intravenous administration; cited from earlier work

SMILES	bladder pressure
C[C@H](Cc1ccc2c(c1)OC(C(=O)[O-])(C(=O)[O-])O2)NC[C@H](O)c1cccc(Cl)c1.[Na+].[Na+] [CL316243]	reduces bladder pressure
